# Several values for one entry are separate records, joined by “and”; a condition that tells them apart may be missing. Equal entries are not always repeated. Inconclusive results and toxic doses are left out.
# Test system: P388 leukemia ip, CD2F1 mice, survival T/C
# Experiment: NCI In Vivo Anticancer Drug Screen. Data for tumor model P388 Leukemia (intraperitoneal) in CD2F1 (CDF1) mice
# Conditions: endpoint: median survival time, higher = longer survival
# In short: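 Mice carrying the transplanted tumor received test compound or vehicle. Survival was recorded in each group, and the value is the treated-group measurement divided by that of the vehicle-treated control group.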
smiles,measurement,setting,value
O=C1NC2(CCCCC2)C(=O)N1CCN(CCCl)CCCl,T/C,"dose: 0.62 mg/kg/injection, schedule: Q01DX005 (iv), vehicle: other",108 % of control
same,T/C,"dose: 0.75 mg/kg/injection, schedule: Q01DX009 (ip), vehicle: saline",112 % of control and 114 % of control and 122 % of control
same,T/C,"dose: 1.25 mg/kg/injection, schedule: Q01DX001 (iv), vehicle: other",112 % of control
same,T/C,"dose: 1.25 mg/kg/injection, schedule: Q01DX001 (oral), vehicle: other",101 % of control
same,T/C,"dose: 1.25 mg/kg/injection, schedule: Q01DX005 (iv), vehicle: other",116 % of control
same,T/C,"dose: 1.25 mg/kg/injection, schedule: Q01DX009 (ip), vehicle: saline with Tween-80",124 % of control
same,T/C,"dose: 1.5 mg/kg/injection, schedule: Q01DX005 (ip), vehicle: saline",118 % of control and 119 % of control
same,T/C,"dose: 1.5 mg/kg/injection, schedule: Q01DX005 (ip), vehicle: suspension in saline",119 % of control
same,T/C,"dose: 1.5 mg/kg/injection, schedule: Q01DX005 (iv), vehicle: suspension in saline",101 % of control
same,T/C,"dose: 1.5 mg/kg/injection, schedule: Q01DX009 (ip), vehicle: Klucel (hydroxypropylcellulose) (HPC)",164 % of control
same,T/C,"dose: 1.5 mg/kg/injection, schedule: Q01DX009 (ip), vehicle: other",120 % of control
same,T/C,"dose: 2.5 mg/kg/injection, schedule: Q01DX001 (ip), vehicle: other",121 % of control
same,T/C,"dose: 2.5 mg/kg/injection, schedule: Q01DX001 (iv), vehicle: other",109 % of control
same,T/C,"dose: 2.5 mg/kg/injection, schedule: Q01DX005 (iv), vehicle: clinical formulation",115 % of control and 121 % of control
same,T/C,"dose: 2.5 mg/kg/injection, schedule: Q01DX005 (iv), vehicle: other",109 % of control
same,T/C,"dose: 2.5 mg/kg/injection, schedule: Q01DX005 (oral), vehicle: other",100 % of control
same,T/C,"dose: 2.5 mg/kg/injection, schedule: Q01DX009 (ip), vehicle: clinical formulation",152 % of control and 154 % of control and 180 % of control
same,T/C,"dose: 2.5 mg/kg/injection, schedule: Q01DX009 (ip), vehicle: other",151 % of control
same,T/C,"dose: 2.5 mg/kg/injection, schedule: Q01DX009 (ip), vehicle: saline with Tween-80",167 % of control
same,T/C,"dose: 2.5 mg/kg/injection, schedule: Q01DX009 (oral), vehicle: other",109 % of control
same,T/C,"dose: 3.0 mg/kg/injection, schedule: Q01DX005 (iv), vehicle: suspension in saline",105 % of control
same,T/C,"dose: 3.0 mg/kg/injection, schedule: Q01DX009 (ip), vehicle: Klucel (hydroxypropylcellulose) (HPC)",166 % of control and 169 % of control
same,T/C,"dose: 3.0 mg/kg/injection, schedule: Q01DX009 (ip), vehicle: saline with Tween-80",163 % of control
same,T/C,"dose: 3.0 mg/kg/injection, schedule: Q01DX009 (oral), vehicle: Klucel (hydroxypropylcellulose) (HPC)",108 % of control
same,T/C,"dose: 3.0 mg/kg/injection, schedule: Q01DX009 (oral), vehicle: saline",102 % of control
same,T/C,"dose: 5.0 mg/kg/injection, schedule: Q01DX001 (iv), vehicle: other",105 % of control
same,T/C,"dose: 5.0 mg/kg/injection, schedule: Q01DX001 (oral), vehicle: other",99 % of control
same,T/C,"dose: 5.0 mg/kg/injection, schedule: Q01DX005 (iv), vehicle: clinical formulation",156 % of control
same,T/C,"dose: 5.0 mg/kg/injection, schedule: Q01DX005 (iv), vehicle: other",113 % of control
same,T/C,"dose: 5.0 mg/kg/injection, schedule: Q01DX005 (oral), vehicle: other",99 % of control
same,T/C,"dose: 5.0 mg/kg/injection, schedule: Q01DX009 (ip), vehicle: other",175 % of control
same,T/C,"dose: 5.0 mg/kg/injection, schedule: Q01DX009 (oral), vehicle: other",114 % of control
same,T/C,"dose: 6.0 mg/kg/injection, schedule: Q01DX005 (ip), vehicle: suspension in saline",164 % of control
same,T/C,"dose: 6.0 mg/kg/injection, schedule: Q01DX005 (iv), vehicle: suspension in saline",108 % of control
same,T/C,"dose: 6.0 mg/kg/injection, schedule: Q01DX009 (ip), vehicle: other",157 % of control
same,T/C,"dose: 6.0 mg/kg/injection, schedule: Q01DX009 (oral), vehicle: Klucel (hydroxypropylcellulose) (HPC)",102 % of control
same,T/C,"dose: 6.0 mg/kg/injection, schedule: Q01DX009 (oral), vehicle: saline",108 % of control
same,T/C,"dose: 6.25 mg/kg/injection, schedule: Q01DX009 (oral), vehicle: Klucel (hydroxypropylcellulose) (HPC)",112 % of control and 113 % of control
same,T/C,"dose: 8.0 mg/kg/injection, schedule: Q01DX001 (ip), vehicle: suspension in saline",108 % of control and 116 % of control
same,T/C,"dose: 10.0 mg/kg/injection, schedule: Q01DX001 (iv), vehicle: other",116 % of control
same,T/C,"dose: 10.0 mg/kg/injection, schedule: Q01DX001 (oral), vehicle: other",107 % of control
same,T/C,"dose: 10.0 mg/kg/injection, schedule: Q01DX005 (iv), vehicle: clinical formulation",104 % of control
same,T/C,"dose: 10.0 mg/kg/injection, schedule: Q01DX005 (oral), vehicle: other",112 % of control
same,T/C,"dose: 10.0 mg/kg/injection, schedule: Q01DX009 (ip), vehicle: clinical formulation",170 % of control
same,T/C,"dose: 10.0 mg/kg/injection, schedule: Q01DX009 (ip), vehicle: saline with Tween-80",121 % of control
same,T/C,"dose: 10.0 mg/kg/injection, schedule: Q01DX009 (oral), vehicle: other",116 % of control
same,T/C,"dose: 12.0 mg/kg/injection, schedule: Q01DX005 (ip), vehicle: saline",163 % of control and 167 % of control
same,T/C,"dose: 12.0 mg/kg/injection, schedule: Q01DX009 (ip), vehicle: Klucel (hydroxypropylcellulose) (HPC)",121 % of control
same,T/C,"dose: 12.0 mg/kg/injection, schedule: Q01DX009 (ip), vehicle: other",168 % of control
same,T/C,"dose: 12.0 mg/kg/injection, schedule: Q01DX009 (oral), vehicle: Klucel (hydroxypropylcellulose) (HPC)",117 % of control
same,T/C,"dose: 12.0 mg/kg/injection, schedule: Q01DX009 (oral), vehicle: other",100 % of control
same,T/C,"dose: 12.0 mg/kg/injection, schedule: Q01DX009 (oral), vehicle: saline",110 % of control
same,T/C,"dose: 12.5 mg/kg/injection, schedule: Q01DX009 (oral), vehicle: Klucel (hydroxypropylcellulose) (HPC)",115 % of control and 120 % of control
same,T/C,"dose: 15.0 mg/kg/injection, schedule: Q01DX009 (ip), vehicle: Klucel (hydroxypropylcellulose) (HPC)",100 % of control
same,T/C,"dose: 16.0 mg/kg/injection, schedule: Q01DX001 (ip), vehicle: suspension in saline",104 % of control
same,T/C,"dose: 20.0 mg/kg/injection, schedule: Q01DX001 (ip), vehicle: other",151 % of control
same,T/C,"dose: 20.0 mg/kg/injection, schedule: Q01DX001 (iv), vehicle: other",122 % of control
same,T/C,"dose: 20.0 mg/kg/injection, schedule: Q01DX001 (oral), vehicle: other",104 % of control
same,T/C,"dose: 20.0 mg/kg/injection, schedule: Q01DX005 (oral), vehicle: other",109 % of control
same,T/C,"dose: 24.0 mg/kg/injection, schedule: Q01DX005 (ip), vehicle: saline",181 % of control
same,T/C,"dose: 24.0 mg/kg/injection, schedule: Q01DX005 (iv), vehicle: suspension in saline",117 % of control
same,T/C,"dose: 24.0 mg/kg/injection, schedule: Q01DX009 (oral), vehicle: Klucel (hydroxypropylcellulose) (HPC)",122 % of control
same,T/C,"dose: 24.0 mg/kg/injection, schedule: Q01DX009 (oral), vehicle: other",107 % of control
same,T/C,"dose: 24.0 mg/kg/injection, schedule: Q01DX009 (oral), vehicle: saline",113 % of control
same,T/C,"dose: 25.0 mg/kg/injection, schedule: Q01DX001 (ip), vehicle: Klucel (hydroxypropylcellulose) (HPC)",168 % of control
same,T/C,"dose: 25.0 mg/kg/injection, schedule: Q01DX001 (ip), vehicle: saline",175 % of control
same,T/C,"dose: 32.0 mg/kg/injection, schedule: Q01DX001 (ip), vehicle: suspension in saline",101 % of control
same,T/C,"dose: 32.0 mg/kg/injection, schedule: Q01DX001 (oral), vehicle: suspension in saline",100 % of control
same,T/C,"dose: 40.0 mg/kg/injection, schedule: Q01DX001 (ip), vehicle: other",181 % of control
same,T/C,"dose: 40.0 mg/kg/injection, schedule: Q01DX001 (oral), vehicle: other",101 % of control
same,T/C,"dose: 40.0 mg/kg/injection, schedule: Q01DX005 (oral), vehicle: other",118 % of control
same,T/C,"dose: 40.0 mg/kg/injection, schedule: Q01DX009 (oral), vehicle: other",115 % of control
same,T/C,"dose: 48.0 mg/kg/injection, schedule: Q01DX009 (oral), vehicle: Klucel (hydroxypropylcellulose) (HPC)",119 % of control
same,T/C,"dose: 48.0 mg/kg/injection, schedule: Q01DX009 (oral), vehicle: other",103 % of control
same,T/C,"dose: 48.0 mg/kg/injection, schedule: Q01DX009 (oral), vehicle: saline",119 % of control
same,T/C,"dose: 50.0 mg/kg/injection, schedule: Q01DX009 (oral), vehicle: Klucel (hydroxypropylcellulose) (HPC)",155 % of control
same,T/C,"dose: 64.0 mg/kg/injection, schedule: Q01DX001 (ip), vehicle: saline",163 % of control
same,T/C,"dose: 64.0 mg/kg/injection, schedule: Q01DX001 (ip), vehicle: suspension in saline",101 % of control
same,T/C,"dose: 64.0 mg/kg/injection, schedule: Q01DX001 (oral), vehicle: saline",99 % of control
same,T/C,"dose: 64.0 mg/kg/injection, schedule: Q01DX001 (oral), vehicle: suspension in saline",106 % of control and 108 % of control
same,T/C,"dose: 96.0 mg/kg/injection, schedule: Q01DX009 (oral), vehicle: other",107 % of control
same,T/C,"dose: 100.0 mg/kg/injection, schedule: Q01DX009 (oral), vehicle: Klucel (hydroxypropylcellulose) (HPC)",120 % of control
same,T/C,"dose: 128.0 mg/kg/injection, schedule: Q01DX001 (oral), vehicle: saline",99 % of control
same,T/C,"dose: 128.0 mg/kg/injection, schedule: Q01DX001 (oral), vehicle: suspension in saline",102 % of control and 109 % of control
same,T/C,"dose: 256.0 mg/kg/injection, schedule: Q01DX001 (oral), vehicle: saline",107 % of control
same,T/C,"dose: 256.0 mg/kg/injection, schedule: Q01DX001 (oral), vehicle: suspension in saline",103 % of control and 105 % of control
